This is an account of results in patent publication US8741934B2, “Inhibitors of ion channels” (Pfizer Limited, priority 2007, dated 2014).

This test has as its target T1, hSCN3A sodium channels (Homo sapiens, UniProt Q9NY46).
T1 construct: expressed in transfected cells
The experiment in a line: hSCN3A electrophysiology, whole-cell patch-clamp or PatchXpress 7000, estimated IC-50 (Table B). It is filed as cell-based. Conditions: read-out: SCN3A EIC-50. An outline of the steps:
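Stably transfected HEK cells, whole-cell voltage clamp at 22-24° C, manual or PatchXpress 7000. Cells held at empirically determined inactivation V1/2; current evoked by 20 msec step to 0 mV after 8 sec prepulse to V1/2.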

Setting [1] is: estimated IC-50, hSCN3A cells, whole-cell patch-clamp or PatchXpress 7000.

Read-outs that look alike come from different tables or passages of the source.

T1 sequence (Q9NY46 whole entry): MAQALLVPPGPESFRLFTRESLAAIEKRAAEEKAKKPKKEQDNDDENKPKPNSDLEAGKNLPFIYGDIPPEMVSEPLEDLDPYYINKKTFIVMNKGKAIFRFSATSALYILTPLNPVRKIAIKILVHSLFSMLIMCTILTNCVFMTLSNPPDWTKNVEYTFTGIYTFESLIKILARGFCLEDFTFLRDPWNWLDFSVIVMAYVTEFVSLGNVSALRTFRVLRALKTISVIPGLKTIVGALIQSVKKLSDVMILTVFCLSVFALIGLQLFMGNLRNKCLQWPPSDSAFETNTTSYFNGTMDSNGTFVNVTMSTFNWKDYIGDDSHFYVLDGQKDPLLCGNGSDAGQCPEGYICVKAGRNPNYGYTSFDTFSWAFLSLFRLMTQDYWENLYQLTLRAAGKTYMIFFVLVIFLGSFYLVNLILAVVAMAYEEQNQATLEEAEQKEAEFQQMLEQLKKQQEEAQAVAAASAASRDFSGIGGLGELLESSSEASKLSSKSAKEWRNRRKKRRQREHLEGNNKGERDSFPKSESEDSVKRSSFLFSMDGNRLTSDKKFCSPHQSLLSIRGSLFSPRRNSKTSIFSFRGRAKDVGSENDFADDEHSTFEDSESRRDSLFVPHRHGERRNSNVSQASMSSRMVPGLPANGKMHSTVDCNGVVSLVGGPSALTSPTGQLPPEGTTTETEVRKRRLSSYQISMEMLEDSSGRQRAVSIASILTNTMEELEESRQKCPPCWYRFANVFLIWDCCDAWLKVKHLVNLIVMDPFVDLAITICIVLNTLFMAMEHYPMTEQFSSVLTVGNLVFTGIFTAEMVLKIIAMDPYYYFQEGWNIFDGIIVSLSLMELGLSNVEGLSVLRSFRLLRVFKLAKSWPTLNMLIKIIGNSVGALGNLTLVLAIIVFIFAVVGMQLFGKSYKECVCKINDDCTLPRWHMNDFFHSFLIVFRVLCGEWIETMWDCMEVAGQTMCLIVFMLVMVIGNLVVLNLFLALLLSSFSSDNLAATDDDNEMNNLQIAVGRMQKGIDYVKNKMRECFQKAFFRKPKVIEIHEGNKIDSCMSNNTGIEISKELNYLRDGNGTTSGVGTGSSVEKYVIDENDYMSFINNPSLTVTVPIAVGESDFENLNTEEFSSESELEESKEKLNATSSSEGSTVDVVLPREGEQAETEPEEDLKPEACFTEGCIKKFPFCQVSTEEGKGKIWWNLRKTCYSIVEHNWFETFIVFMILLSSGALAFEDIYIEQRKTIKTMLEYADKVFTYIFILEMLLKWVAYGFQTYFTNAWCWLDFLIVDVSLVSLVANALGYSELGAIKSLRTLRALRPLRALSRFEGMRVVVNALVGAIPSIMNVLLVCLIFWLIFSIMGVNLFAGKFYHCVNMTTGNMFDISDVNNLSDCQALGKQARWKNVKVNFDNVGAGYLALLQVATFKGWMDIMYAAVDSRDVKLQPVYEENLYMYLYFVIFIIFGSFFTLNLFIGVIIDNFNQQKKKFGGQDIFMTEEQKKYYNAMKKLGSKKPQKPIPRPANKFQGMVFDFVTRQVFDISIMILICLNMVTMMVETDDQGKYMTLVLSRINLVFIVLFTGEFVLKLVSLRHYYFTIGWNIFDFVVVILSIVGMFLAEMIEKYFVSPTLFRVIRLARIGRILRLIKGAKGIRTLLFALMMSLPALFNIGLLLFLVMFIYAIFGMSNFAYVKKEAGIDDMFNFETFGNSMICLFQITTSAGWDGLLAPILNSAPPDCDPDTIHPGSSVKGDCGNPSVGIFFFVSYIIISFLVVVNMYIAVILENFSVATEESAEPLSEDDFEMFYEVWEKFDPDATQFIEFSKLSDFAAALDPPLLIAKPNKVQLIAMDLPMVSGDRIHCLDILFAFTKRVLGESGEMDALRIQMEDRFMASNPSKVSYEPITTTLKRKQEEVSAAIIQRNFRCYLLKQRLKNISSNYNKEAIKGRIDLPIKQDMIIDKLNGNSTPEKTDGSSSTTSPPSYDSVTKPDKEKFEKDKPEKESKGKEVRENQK

Take `O=C(NCc1ccc(F)c(F)c1)c1ccc(S(=O)(=O)Nc2ncc(Cl)s2)c(F)c1` [Example 312, 4-{[(5-Chloro-1,3-thiazol-2-yl)amino]sulfonyl}-N-(3,4-difluorobenzyl)-3-fluorobenzamide]: under setting [1], the IC50 is 140 nM.

Take `O=C(NCc1ccc(F)c(OC(F)(F)F)c1)c1ccc(S(=O)(=O)Nc2ncc(Cl)s2)c(F)c1` [Example 313, 4-{[(5-Chloro-1,3-thiazol-2-yl)amino]sulfonyl}-3-fluoro-N-[4-fluoro-3-(trifluoromethoxy)benzyl]benzamide]: the IC50 under setting [1] was 160 nM.

Turning to `O=C(NCc1ccc(OC(F)(F)F)cc1)c1ccc(S(=O)(=O)Nc2ncc(Cl)s2)c(F)c1` [Example 314, 4-{[(5-Chloro-1,3-thiazol-2-yl)amino]sulfonyl}-3-fluoro-N-[4-(trifluoromethoxy)benzyl]benzamide], the IC50 under setting [1] was 70 nM.

With `O=C(NCc1ccc(C(F)(F)F)cc1)c1ccc(S(=O)(=O)Nc2ncc(Cl)s2)c(F)c1` [Example 315, 4-{[(5-Chloro-1,3-thiazol-2-yl)amino]sulfonyl}-3-fluoro-N-[4-(trifluoromethyl)benzyl] benzamide], the IC50 under setting [1] is 110 nM.

With `O=C(NCc1ccc(F)c(C(F)(F)F)c1)c1ccc(S(=O)(=O)Nc2ncc(Cl)s2)c(F)c1` [Example 316, 4-{[(5-Chloro-1,3-thiazol-2-yl)amino]sulfonyl}-3-fluoro-N-[4-fluoro-3-(trifluoromethyl)benzyl] benzamide], the IC50 under setting [1] was 140 nM.

Consider `O=C(NCc1ccc(C(F)(F)F)c(Cl)c1)c1ccc(S(=O)(=O)Nc2ncns2)c(F)c1` [Example 317, N-[3-chloro-4-(trifluoromethyl)benzyl]-3-fluoro-4-[(1,2,4-thiadiazol-5-ylamino)sulfonyl]benzamide], for which the IC50 under setting [1] is 40 nM.

Regarding `O=C(NCc1ccc(OC(F)(F)F)c(F)c1)c1ccc(S(=O)(=O)Nc2ncns2)c(F)c1` [Example 318, 3-Fluoro-N-[3-fluoro-4-(trifluoromethoxy)benzyl]-4-[(1,2,4-thiadiazol-5-ylamino)sulfonyl]benzamide], the IC50 under setting [1] was 140 nM.

As for `O=C(NCc1ccc(C(F)(F)F)c(F)c1)c1ccc(S(=O)(=O)Nc2ncns2)c(F)c1` [Example 319, 3-Fluoro-N-[3-fluoro-4-(trifluoromethyl)benzyl]-4-[(1,2,4-thiadiazol-5-ylamino)sulfonyl]benzamide], under setting [1], the IC50 was 70 nM.

Regarding `CC(NC(=O)c1ccc(S(=O)(=O)Nc2ncns2)c(F)c1)c1ccc(C(F)(F)F)cc1` (stereo not shown) [Example 320, 3-Fluoro-4-[(1,2,4-thiadiazol-5-ylamino)sulfonyl]-N-{1-[4-(trifluoromethyl)phenyl]ethyl}benzamide], under setting [1], the IC50 was 2660 nM.

`O=C(NCc1ccc(OC(F)(F)F)c(F)c1)c1ccc(S(=O)(=O)Nc2ncns2)cc1` [Example 321, N-[3-fluoro-4-(trifluoromethoxy)benzyl]-4-[(1,2,4-thiadiazol-5-ylamino)sulfonyl]benzamide]: the IC50 under setting [1] is 40 nM.

Take `CC(NC(=O)c1ccc(S(=O)(=O)Nc2ncns2)cc1)c1ccc(C(F)(F)F)cc1` (stereo not shown) [Example 322, 4-[(1,2,4-Thiadiazol-5-ylamino)sulfonyl]-N-{1-[4-(trifluoromethyl)phenyl]ethyl}benzamide]: the IC50 under setting [1] was 340 nM.

`O=C(NCc1ccc(C(F)(F)F)c(F)c1)c1ccc(S(=O)(=O)Nc2ncns2)cc1` [Example 323, N-[3-fluoro-4-(trifluoromethyl)benzyl]-4-[(1,2,4-thiadiazol-5-ylamino)sulfonyl]benzamide]: under setting [1], the IC50 is 190 nM.

`O=C(NCc1ccc(C(F)(F)F)c(Cl)c1)c1ccc(S(=O)(=O)Nc2ncns2)cc1` [Example 324, N-[3-chloro-4-(trifluoromethyl)benzyl]-4-[(1,2,4-thiadiazol-5-ylamino)sulfonyl]benzamide]: the IC50 under setting [1] was 30 nM.

`O=C(NCc1ccc(C(F)(F)F)cc1)c1ccc(S(=O)(=O)Nc2nccs2)cc1F` [Example 325, 2-Fluoro-4-[(1,3-thiazol-2-ylamino)sulfonyl]-N-[4-(trifluoromethyl)benzyl]benzamide]: the IC50 under setting [1] was 460 nM.

Take `O=C(NCc1cccc(C(F)(F)F)c1)c1ccc(S(=O)(=O)Nc2nccs2)cc1F` [Example 327, 2-Fluoro-4-[(1,3-thiazol-2-ylamino)sulfonyl]-N-[3-(trifluoromethyl)benzyl]benzamide]: under setting [1], the IC50 is 260 nM.

`O=C(NCc1ccc(OC(F)(F)F)c(F)c1)c1ccc(S(=O)(=O)Nc2nccs2)cc1F` [Example 328, 2-Fluoro-N-[3-fluoro-4-(trifluoromethoxy)benzyl]-4-[(1,3-thiazol-2-ylamino)sulfonyl] benzamide]: the IC50 under setting [1] was 120 nM.

Regarding `O=C(NCc1ccc(F)c(F)c1)c1ccc(S(=O)(=O)Nc2nccs2)cc1F` [Example 329, N-(3,4-difluorobenzyl)-2-fluoro-4-[(1,3-thiazol-2-ylamino)sulfonyl] benzamide], under setting [1], the IC50 was 360 nM.

`O=C(NCc1ccc(OC(F)(F)F)cc1)c1ccc(S(=O)(=O)Nc2nccs2)cc1F` [Example 330, 2-Fluoro-4-[(1,3-thiazol-2-ylamino)sulfonyl]-N-[4-(trifluoromethoxy)benzyl]benzamide]: the IC50 under setting [1] is 130 nM.

With `O=C(NCc1ccc(F)c(OC(F)(F)F)c1)c1ccc(S(=O)(=O)Nc2nccs2)cc1F` [Example 331, 2-Fluoro-N-[4-fluoro-3-(trifluoromethoxy)benzyl]-4-[(1,3-thiazol-2-ylamino)sulfonyl] benzamide], the IC50 under setting [1] is 900 nM.

Take `O=C(NCc1ccc(F)c(Cl)c1)c1ccc(S(=O)(=O)Nc2nccs2)cc1F` [Example 332, N-(3-chloro-4-fluorobenzyl)-2-fluoro-4-[(1,3-thiazol-2-ylamino)sulfonyl] benzamide]: the IC50 under setting [1] is 380 nM.

On to `O=C(NCc1ccc(C(F)(F)F)c(F)c1)c1ccc(S(=O)(=O)Nc2nccs2)cc1F` [Example 333, 2-Fluoro-N-[3-fluoro-4-(trifluoromethyl)benzyl]-4-[(1,3-thiazol-2-ylamino)sulfonyl] benzamide], for which the IC50 under setting [1] is 210 nM.

In the case of `O=C(NCc1ccc(Cl)c(F)c1)c1ccc(S(=O)(=O)Nc2nccs2)cc1F` [Example 334, N-(4-chloro-3-fluorobenzyl)-2-fluoro-4-[(1,3-thiazol-2-ylamino)sulfonyl] benzamide], the IC50 under setting [1] was 340 nM.

For the compound `O=C(NCc1cccc(OC(F)(F)F)c1)c1ccc(S(=O)(=O)Nc2nccs2)cc1F` [Example 335, 2-Fluoro-4-[(1,3-thiazol-2-ylamino)sulfonyl]-N-[3-(trifluoromethoxy)benzyl]benzamide], under setting [1], the IC50 was 200 nM.

As to `O=C(NCc1ccc(F)c(C(F)(F)F)c1)c1ccc(S(=O)(=O)Nc2nccs2)cc1F` [Example 336, 2-Fluoro-N-[4-fluoro-3-(trifluoromethyl)benzyl]-4-[(1,3-thiazol-2-ylamino)sulfonyl] benzamide], the IC50 under setting [1] is 240 nM.

Turning to `O=C(NCc1ccc(OC(F)(F)F)c(F)c1)c1ccc(S(=O)(=O)Nc2ncc(Cl)s2)cc1Cl` [Example 337, 2-Chloro-4-{[(5-chloro-1,3-thiazol-2-yl)amino]sulfonyl}-N-[3-fluoro-4-(trifluoromethoxy)benzyl]benzamide], the IC50 under setting [1] was 390 nM.

Consider `O=C(NCc1ccc(C(F)(F)F)cc1)c1ccc(S(=O)(=O)Nc2ncc(Cl)s2)cc1Cl` [Example 338, 2-Chloro-4-{[(5-chloro-1,3-thiazol-2-yl)amino]sulfonyl}-N-[4-(trifluoromethyl)benzyl] benzamide], for which the IC50 under setting [1] was 1070 nM.

For `O=C(NCc1ccc(C(F)(F)F)c(F)c1)c1ccc(S(=O)(=O)Nc2ncc(Cl)s2)cc1Cl` [Example 339, 2-Chloro-4-{[(5-chloro-1,3-thiazol-2-yl)amino]sulfonyl}-N-[3-fluoro-4-(trifluoromethyl)benzyl]benzamide], the IC50 under setting [1] was 590 nM.

For the compound `O=C(NCc1ccc(C(F)(F)F)c(F)c1)c1ccc(S(=O)(=O)Nc2nccs2)cn1` [Example 340, N-[3-fluoro-4-(trifluoromethyl)benzyl]-5-[(1,3-thiazol-2-ylamino)sulfonyl]pyridine-2-carboxamide], the IC50 under setting [1] is 280 nM.

As for `O=C(NCc1ccc(C(F)(F)F)c(Cl)c1)c1ccc(S(=O)(=O)Nc2nccs2)cn1` [Example 341, N-[3-chloro-4-(trifluoromethyl)benzyl]-5-[(1,3-thiazol-2-ylamino)sulfonyl] pyridine-2-carboxamide], the IC50 was 190 nM.

`O=C(NCc1ccc(C(F)(F)F)cc1)c1ccc(S(=O)(=O)Nc2nccs2)cn1` [Example 342, 5-[(1,3-Thiazol-2-ylamino)sulfonyl]-N-[4-(trifluoromethyl)benzyl] pyridine-2-carboxamide]: the IC50 under setting [1] is 510 nM.

For the compound `O=C(NCc1ccc(OC(F)(F)F)c(F)c1)c1ccc(S(=O)(=O)Nc2nccs2)cn1` [Example 343, N-[3-fluoro-4-(trifluoromethoxy)benzyl]-5-[(1,3-thiazol-2-ylamino)sulfonyl] pyridine-2-carboxamide], the IC50 under setting [1] is 310 nM.

Take `O=C(NCc1ccc(C(F)(F)F)cc1)c1ccc(S(=O)(=O)Nc2ncc(Cl)s2)cn1` [Example 344, 5-{[(5-Chloro-1,3-thiazol-2-yl)amino]sulfonyl}-N-[4-(trifluoromethyl)benzyl]pyridine-2-carboxamide]: the IC50 under setting [1] was 520 nM.

For `O=C(NCc1ccc(C(F)(F)F)c(F)c1)c1ccc(S(=O)(=O)Nc2ncc(Cl)s2)cn1` [Example 345, 5-{[(5-Chloro-1,3-thiazol-2-yl)amino]sulfonyl}-N-[3-fluoro-4-(trifluoromethyl)benzyl] pyridine-2-carboxamide], the IC50 is 270 nM.

Consider `O=C(NCc1ccc(C(F)(F)F)c(Cl)c1)c1ccc(S(=O)(=O)Nc2ncc(Cl)s2)cn1` [Example 346, 5-{[(5-Chloro-1,3-thiazol-2-yl)amino]sulfonyl}-N-[3-chloro-4-(trifluoromethyl)benzyl] pyridine-2-carboxamide], for which the IC50 is 70 nM.
